The record followed here is patent US11884647B2, “Compounds and methods for targeting pathogenic blood vessels” (THE REGENTS OF THE UNIVERSITY OF CALIFORNIA, priority 2019, dated 2024).

The structures appear in SMILES notation.

The subject of one test is tumor endothelial cells (LL/2 lung cancer tumor). The test can be described thus: Lung LL2 ex vivo model of tumor angiogenesis. To be noted: Lung LL2 ex vivo; Conc. 20 μm; 48 hrs. In kind it is cell-based, mouse. A digest of the protocol:
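Mouse LL2 tumor fragments (~0.5×0.5×0.3 mm) embedded in Matrigel and grown in endothelial growth medium at 37° C until endothelial outgrowth (about 4 days) before drug treatment. About 48 h after drug addition, stained 10 min with fluorescein diacetate/propidium iodide; live (green) and dead (red) cells imaged at 2× with fixed channel settings.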
For the compound `CCCCCCCCCCCCCCOc1ccc(S(=O)(=O)c2cnc3ccc([S](C)[O])cc3c2N2CCC(N3CCC(N4CCCC(O)C4)CC3)CC2)cc1` (centres unmarked) [compound 348, 1″-(6-(methyl(λ^1-oxidanyl)-λ^3-sulfanyl)-3-((4-(tetradecyloxy)phenyl)sulfonyl)quinolin-4-yl)-[1,4′:1′,4″-terpiperidin]-3-ol], the “48 hrs (morphology observations after 48 hours)” value was “* (50% or less of cells vesicularize in cell shape)”.

Staying with this test, now noted: Lung LL2 ex vivo; Conc. 20 μm; drug treatment two days.
`CCCCCCCCCCCCCCOc1ccc(S(=O)(=O)c2cnc3ccc([S](C)[O])cc3c2N2CCC(N3CCC(N4CCCC(O)C4)CC3)CC2)cc1` (centres unmarked) [compound 348, 1″-(6-(methyl(λ^1-oxidanyl)-λ^3-sulfanyl)-3-((4-(tetradecyloxy)phenyl)sulfonyl)quinolin-4-yl)-[1,4′:1′,4″-terpiperidin]-3-ol] showed a Cell death of 20%.

Staying with this test, now noted: Lung LL2 ex vivo; Conc. 40 μm; drug treatment two days.
In turn, `CCCCOc1ccc(S(=O)(=O)c2cnc3ccc(SC)cc3c2N2CCC(N3CCCC3CO)CC2)cc1` (centres unmarked) [compound 350, (1-(1-(3-((4-butoxyphenyl)sulfonyl)-6-(methylthio)quinolin-4-yl)piperidin-4-yl)pyrrolidin-2-yl)methanol] returned a Cell death of 20%.
On the same count and under the same terms, next, `CCCCOc1ccc(S(=O)(=O)c2cnc3ccc(SC)cc3c2N2CCCN(CCO)CC2)cc1` [compound 351, 2-(4-(3-((4-butoxyphenyl)sulfonyl)-6-(methylthio)quinolin-4-yl)-1,4-diazepan-1-yl)ethan-1-ol]: 100%; `CCCCOc1ccc(S(=O)(=O)c2cnc3ccc(SC)cc3c2N2CCC3C(COCCN3CC(C)C)C2)cc1` (centres unmarked) [compound 352, 7-(3-((4-butoxyphenyl)sulfonyl)-6-(methylthio)quinolin-4-yl)-1-isobutyldecahydropyrido[4,3-e][1,4]oxazepine]: 100%; `CCCCOc1ccc(S(=O)(=O)c2cnc3ccc(SC)cc3c2N2CCCN(S(=O)(=O)NCC(F)(F)F)CC2)cc1` [compound 353, 4-(3-((4-butoxyphenyl)sulfonyl)-6-(methylthio)quinolin-4-yl)-N-(2,2,2-trifluoroethyl)-1,4-diazepane-1-sulfonamide]: 0%.
The same measure, in the same setting: the figure for `CCCCOc1ccc(S(=O)(=O)c2cnc3ccc(SC)cc3c2N2CCCN(CC3(O)CCCC3)CC2)cc1` [compound 354, 1-((4-(3-((4-butoxyphenyl)sulfonyl)-6-(methylthio)quinolin-4-yl)-1,4-diazepan-1-yl)methyl)cyclopentan-1-ol] is 0%; for `CCCCOc1ccc(S(=O)(=O)c2cnc3ccc(SC)cc3c2N2CCCN(C3COC3)CC2)cc1` [compound 355, 3-((4-butoxyphenyl)sulfonyl)-6-(methylthio)-4-(4-(oxetan-3-yl)-1,4-diazepan-1-yl)quinoline] it is 0%; for `CCCCOc1ccc(S(=O)(=O)c2cnc3ccc(SC)cc3c2N2CCCN(c3nc4ccc(Cl)cc4s3)CC2)cc1` [compound 356, 2-(4-(3-((4-butoxyphenyl)sulfonyl)-6-(methylthio)quinolin-4-yl)-1,4-diazepan-1-yl)-6-chlorobenzo[d]thiazole] it is 0%.
On the same count and under the same terms, next, `CCCCOc1ccc(S(=O)(=O)c2cnc3ccc(SC)cc3c2N2CCC(=O)N(C)CC2)cc1` [compound 357, 1-(3-((4-butoxyphenyl)sulfonyl)-6-(methylthio)quinolin-4-yl)-4-methyl-1,4-diazepan-5-one]: 0%.
`CCCCOc1ccc(S(=O)(=O)c2cnc3ccc(SC)cc3c2N2CCCN(C3CCSCC3)CC2)cc1` [compound 358, 3-((4-butoxyphenyl)sulfonyl)-6-(methylthio)-4-(4-(tetrahydro-2H-thiopyran-4-yl)-1,4-diazepan-1-yl)quinoline]: the Cell death was determined as 0%.
For `CCCCOc1ccc(S(=O)(=O)c2cnc3ccc(SC)cc3c2N2CCCN(C3CCS(=O)(=O)CC3)CC2)cc1` [compound 359, 4-(4-(3-((4-butoxyphenyl)sulfonyl)-6-(methylthio)quinolin-4-yl)-1,4-diazepan-1-yl)tetrahydro-2H-thiopyran 1,1-dioxide], the Cell death was 20%.
The same measure, in the same setting: next, `CNC(=O)c1ccc2ncc(S(=O)(=O)c3ccc(OC)cc3)c(NC)c2c1` [compound 360, 3-((4-methoxyphenyl)sulfonyl)-N-methyl-4-(methylamino)quinoline-6-carboxamide]: 20%.

The test is the same for the next values; noted with them: Mus musculus, Endothelial cell, 48 h, read-out: Cell death.
In the case of `COc1ccc(S(=O)(=O)c2cnc3cc(OC)c(OC)cc3c2N2CCCN(C3CCSCC3)CC2)cc1` [compound 329, 6,7-dimethoxy-3-((4-methoxyphenyl)sulfonyl)-4-(4-(tetrahydro-2H-thiopyran-4-yl)-1,4-diazepan-1-yl)quinoline], the cytotoxicity at 40 µM amounted to 40%.
With `COc1ccc(S(=O)(=O)c2cnc3cc(OC)c(OC)cc3c2N2CCCN(C3CCS(=O)(=O)CC3)CC2)cc1` [compound 330, 4-(4-(6,7-dimethoxy-3-((4-methoxyphenyl)sulfonyl)quinolin-4-yl)-1,4-diazepan-1-yl)tetrahydro-2H-thiopyran 1,1-dioxide], the cytotoxicity at 40 µM was found to be 50%.
Still for that read-out and setting: the figure for `COc1ccc(S(=O)(=O)c2cnc3ccc(C(=O)N(C)C)cc3c2N2CCC(N3CCCCC3)CC2)cc1` [compound 331, 4-([1,4′-bipiperidin]-1′-yl)-3-((4-methoxyphenyl)sulfonyl)-N,N-dimethylquinoline-6-carboxamide] is 10%.
As to `COc1ccc(S(=O)(=O)c2cnc3ccc(C(=O)N(C)C)cc3c2N2CCC(N3CCCC3=O)CC2)cc1` [compound 332, 3-((4-methoxyphenyl)sulfonyl)-N,N-dimethyl-4-(4-(2-oxopyrrolidin-1-yl)piperidin-1-yl)quinoline-6-carboxamid], the cytotoxicity at 40 µM was 0%.
Same read-out and setting: the figure for `COc1ccc(S(=O)(=O)c2cnc3ccc(C(=O)N(C)C)cc3c2N2CCCN(CC(=O)N(C)C)CC2)cc1` [compound 333, 4-(4-(2-(dimethylamino)-2-oxoethyl)-1,4-diazepan-1-yl)-3-((4-methoxyphenyl)sulfonyl)-N,N-dimethylquinoline-6-carboxamide] is 0%.
On the same count and under the same terms, next, `CNC(=O)c1ccc2ncc(S(=O)(=O)c3ccc(OC)cc3)c(N3CCC(N4CCCC4CO)CC3)c2c1` (centres unmarked) [compound 336, 4-(4-(2-(hydroxymethyl)pyrrolidin-1-yl)piperidin-1-yl)-3-((4-methoxyphenyl)sulfonyl)-N-methylquinoline-6-carboxamide]: 0%.
As to `CCCCCCCCCCCCOc1ccc(S(=O)(=O)c2cnc3ccc([S+](C)[O-])cc3c2N2CCC(N3CCN(CCO)CC3)CC2)cc1` (centres unmarked) [compound 339, 2-(4-(1-(3-((4-(dodecyloxy)phenyl)sulfonyl)-6-(methylsulfinyl)quinolin-4-yl)piperidin-4-yl)piperazin-1-yl)ethan-1-ol], the cytotoxicity at 20 µM was 50%.
For the compound `CCCCCCCCCCCCOc1ccc(S(=O)(=O)c2cnc3ccc([S+](C)[O-])cc3c2N2CCC(N3CCC(N4CCN(CCO)CC4)CC3)CC2)cc1` (centres unmarked) [compound 340, 2-(4-(1′-(3-((4-(dodecyloxy)phenyl)sulfonyl)-6-(methylsulfinyl)quinolin-4-yl)-[1,4′-bipiperidin]-4-yl)piperazin-1-yl)ethan-1-ol], the cytotoxicity at 20 µM was found to be 60%.
Still for that read-out and setting: next, `CCCCCCCCCCCCOc1ccc(S(=O)(=O)c2cnc3ccc([S+](C)[O-])cc3c2N2CCC(N3CCC(N4CCN(C)CC4)CC3)CC2)cc1` (centres unmarked) [compound 341, 3-((4-(dodecyloxy)phenyl)sulfonyl)-4-(4-(4-methylpiperazin-1-yl)-[1,4′-bipiperidin]-1′-yl)-6-(methylsulfinyl)quinoline]: 80%; `CCCCCCCCCCCCOc1ccc(S(=O)(=O)c2cnc3ccc([S+](C)[O-])cc3c2N2CCC(N3CCC(N4CCCC(O)C4)CC3)CC2)cc1` (centres unmarked) [compound 343, 1″-(3-((4-(dodecyloxy)phenyl)sulfonyl)-6-(methylsulfinyl)quinolin-4-yl)-[1,4′:1′,4″-terpiperidin]-3-ol]: 50%.
On the same count and under the same terms, the figure for `CCCCCCCCCCCCCCOc1ccc(S(=O)(=O)c2cnc3ccc([S+](C)[O-])cc3c2N2CCC(N3CCN(CCO)CC3)CC2)cc1` (centres unmarked) [compound 344, 2-(4-(1-(6-(methylsulfinyl)-3-((4-(tetradecyloxy)phenyl)sulfonyl)quinolin-4-yl)piperidin-4-yl)piperazin-1-yl)ethan-1-ol] is 10%; for `CCCCCCCCCCCCCCOc1ccc(S(=O)(=O)c2cnc3ccc([S+](C)[O-])cc3c2N2CCC(N3CCC(N4CCN(CCO)CC4)CC3)CC2)cc1` (centres unmarked) [compound 345, 2-(4-(1′-(6-(methylsulfinyl)-3-((4-(tetradecyloxy)phenyl)sulfonyl)quinolin-4-yl)-[1,4′-bipiperidin]-4-yl)piperazin-1-yl)ethan-1-ol] it is 50%; for `CCCCCCCCCCCCOc1ccc(S(=O)(=O)c2cnc3ccc([S+](C)[O-])cc3c2N2CCC(N3CCN(CCO)CC3)CC2)cc1F` (centres unmarked) [compound 362, 2-(4-(1-(3-((4-(dodecyloxy)-3-fluorophenyl)sulfonyl)-6-(methylsulfinyl)quinolin-4-yl)piperidin-4-yl)piperazin-1-yl)ethanol] it is 20%.
Take `CCCCCCCCCCCCOc1ccc(S(=O)(=O)c2cnc3ccc([S+](C)[O-])cc3c2N2CCC(N3CCC(N4CCCCC4)CC3)CC2)cc1F` (centres unmarked) [compound 363, 4-([1,4′:1′,4″-terpiperidin]-1″-yl)-3-((4-(dodecyloxy)-3-fluorophenyl)sulfonyl)-6-(methylsulfinyl)quinoline]: the cytotoxicity at 20 µM was found to be 30%.
`CCCCCCCCCCCCOc1ccc(S(=O)(=O)c2cnc3ccc([S+](C)[O-])cc3c2N2CCC(N3CCC(N4CCCC(O)C4)CC3)CC2)cc1F` (centres unmarked) [compound 364, 1″-(3-((4-(dodecyloxy)-3-fluorophenyl)sulfonyl)-6-(methylsulfinyl)quinolin-4-yl)-[1,4′:1′,4″- terpiperidin]-3-ol]: the cytotoxicity at 20 µM was 30%.
As for `CCCCCCCCCCCCCCOc1ccc(S(=O)(=O)c2cnc3ccc([S+](C)[O-])cc3c2N2CCC(N3CCN(CCO)CC3)CC2)cc1F` (centres unmarked) [compound 365, 2-(4-(1-(3-((3-fluoro-4-(tetradecyloxy)phenyl)sulfonyl)-6-(methylsulfinyl)quinolin-4-yl)piperidin-4-yl)piperazin-1-yl)ethanol], the cytotoxicity at 20 µM was determined as 20%.
